In patent US11471446B2, “Compounds for treatment of hypoproliferative disorders” (LU LICENSE AB, priority 2015, dated 2022):
“Also recorded” adds a separate entry of the source. Counter-ions that a name gives are not always drawn.

How the values were obtained:
[1] = system: RPS19-deficient murine erythroid progenitor cells; experiment: Phenotypic assay for rescued cell proliferation of murine RPS19-deficient erythroid progenitor cells; type: cell-based, mouse; conditions: for Emax / EC50: Mus musculus, Erythroid progenitor cell; for Emax: maximal proliferation rescue, read-out: ECMAX (% rescue); for EC50: proliferation rescue of RPS19-deficient erythroid progenitor cells; for rescue of proliferation (in words): RPS19-deficient murine erythroid progenitor cells
Text: Correction of reduced proliferative capacity of RPS19-deficient erythroid progenitors was used as readout in a phenotypic screen for novel drug candidates.

[2] = known from Saito et al.; cited from earlier work
CDK19 [3] = molecular target: T1, CDK19 (Homo sapiens (Human), UniProt Q9BWU1); experiment: 18 selected kinases panel, DiscoveRx LeadHunter Discovery Services; type: binding; conditions: tested on 18 selected kinases
Method: DBA-4 was tested on 18 selected kinases by DiscoveRx LeadHunter™ Discovery Services.

CDK19 [4] = molecular target: T1, CDK19; experiment: KinomeScan (DiscoveRx) on 468 kinases; type: binding; conditions: 0.5 μM
Text: (§1) Arrows point at CDK8 and CDK19.
(§2) In particular, a compound may be considered to be a CDK8 and/or CDK19 inhibitor if it can inhibit CDK8 and/or CDK19 at a concentration as defined herein above using the KinomeScan assay.

CDK8 = CDK8 (Homo sapiens (Human), UniProt P49336); experiment: KinomeScan (DiscoveRx) on 468 kinases; type: binding; conditions: 0.5 μM
Text: as §1, §2

[5] = system: RPS19-deficient erythroid progenitor cells; experiment: 7-AAD FACS, cell survival of RPS19-deficient erythroid progenitors; type: cell-based, mouse
Text: (§3) In addition, the selective CDK8/CDK19 inhibitors DBA-7 and DBA-8 both rescued RPS19-deficient erythroid progenitor cells from apoptosis (FIG. 7) and loss of kit+ progenitor cell maintenance in culture (FIG. 8).

[6] = system: RPS19-deficient erythroid progenitor cells; experiment: c-kit FACS, maintenance of c-kit+ progenitor cells in culture of RPS19-deficient erythroid progenitors; type: cell-based, mouse
Text: FIG. 8: The selective CDK8/CDK19 inhibitors DBA-7 and DBA-8 rescue the loss of c-kit+ progenitor cell observed in in vitro culture of RPS19-deficient erythroid progenitors.
as §3

DBA patient CD34+ cells [7] = experiment: Proliferation of erythroid DBA patient CD34+ cells in vitro; type: cell-based, human; conditions: 200 nM; day 14 of culture
Method: 5000 peripheral blood CD34+ cells from healthy donors or DBA patients were plated in serum free medium containing human stem cell factor and Epo to support expansion of erythroid progenitors and precursor cells. […] All three CDK8-inhibitors promote proliferation of DBA patient cells.
(§4) To confirm that CDK8/CDK19 inhibitors rescue erythropoiesis also in human DBA patient cells, CD34+ cells were isolated from healthy donors and DBA patients. CD34+ cells were cultured in conditions supporting expansion of erythroid progenitors and precursors. Three CDK8/CDK19 inhibitors and vehicle control were added to the cultures.

DBA patient CD34+ cells [8] = experiment: Erythroid maturation of DBA patient cells in vitro (CD71/CD235a flow cytometry); type: cell-based, human; conditions: 200 nM; day 8 of culture; compared to DMSO
Method: Cells were cultured in the same conditions as in FIG. 9 and analysed by flow cytometry at day 8 of culture. CD71 is a positive marker for early erythroid progenitors while CD71 and CD235a positive cells are mature erythroid precursors.
as §4

RPS19-deficient mice = experiment: Reticulocyte counts in RPS19-deficient mouse model for DBA; type: in vivo; conditions: oral 10 mg/kg every 12 hours, 5 doses; peripheral blood 48 hours after last treatment
Method: Treatment was stopped after 5 doses. 48 hours after last treatment peripheral blood was analysed for reticulocyte counts, which reflects the ongoing production of erythrocytes.
Treatment is stopped after 5 doses. 48 hours after last treatment peripheral blood is analysed for reticulocyte counts, which reflects the ongoing production of erythrocytes. Reticulocyte counts is rescued in RPS19-deficient mice treated with the selective CDK8/CDK19 inhibitors tested. In addition to rescue of reticulocyte and haemoglobin levels, other effects of the tested CDK8/CDK19 inhibitors are determined, in particular their ability to rescue bone marrow hypocellularity, to promote hemapopoetic stem and progenitor development, as well as cell cycle arrest and apoptosis.

T1 sequence (Q9BWU1 whole entry): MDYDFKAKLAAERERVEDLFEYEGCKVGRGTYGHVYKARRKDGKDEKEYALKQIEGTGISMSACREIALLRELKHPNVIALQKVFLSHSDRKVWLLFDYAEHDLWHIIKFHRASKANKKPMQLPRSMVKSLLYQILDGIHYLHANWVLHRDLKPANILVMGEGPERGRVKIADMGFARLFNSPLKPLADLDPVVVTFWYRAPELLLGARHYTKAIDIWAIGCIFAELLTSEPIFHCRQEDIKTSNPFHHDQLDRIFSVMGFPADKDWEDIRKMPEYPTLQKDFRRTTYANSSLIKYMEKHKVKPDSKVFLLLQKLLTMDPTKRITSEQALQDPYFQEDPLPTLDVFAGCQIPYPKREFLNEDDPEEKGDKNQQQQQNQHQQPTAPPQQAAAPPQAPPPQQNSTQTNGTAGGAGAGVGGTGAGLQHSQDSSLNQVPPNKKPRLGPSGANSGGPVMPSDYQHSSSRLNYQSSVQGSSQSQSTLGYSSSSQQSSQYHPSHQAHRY
CDK8, sequence (P49336 whole entry): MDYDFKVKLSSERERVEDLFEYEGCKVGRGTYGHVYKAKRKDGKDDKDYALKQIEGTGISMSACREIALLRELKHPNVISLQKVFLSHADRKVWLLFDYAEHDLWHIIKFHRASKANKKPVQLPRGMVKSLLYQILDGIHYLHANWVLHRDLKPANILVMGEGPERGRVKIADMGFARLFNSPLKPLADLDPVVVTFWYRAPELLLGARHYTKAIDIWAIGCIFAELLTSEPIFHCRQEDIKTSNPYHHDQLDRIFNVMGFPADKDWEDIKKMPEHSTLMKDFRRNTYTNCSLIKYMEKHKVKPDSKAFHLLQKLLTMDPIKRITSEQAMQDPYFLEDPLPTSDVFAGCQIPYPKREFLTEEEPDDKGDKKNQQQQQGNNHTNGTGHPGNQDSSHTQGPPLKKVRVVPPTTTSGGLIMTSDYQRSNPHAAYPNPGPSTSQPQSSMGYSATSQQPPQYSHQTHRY

| SMILES | Emax [1] [%] | EC50 [1] [nM] | rescue of proliferation (in words) [1] | also measured |
| --- | --- | --- | --- | --- |
| CN(C)c1ccnc2sc(C(N)=O)c(N)c12 [DBA-1] | 25 | 1200 | partial dose-dependent rescue of proliferation; also recorded: potent | bone anabolic effect [2]: effect as bone anabolic agents |
| COc1ccc(-c2cc(C3CC3)nc3sc(C(N)=O)c(N)c23)cc1 [DBA-2] | 45 | 15000 | potent |  |
| CCc1nc2sc(C(N)=O)c(N)c2c2c1CCCC2 [DBA-3] | 38 | 11000 | potent |  |
| COCc1cc(C)nc2sc(C(N)=O)c(N)c12 [DBA-4] | 28 | 2800 | potent | inhibition of CDK19 (CDK19 [3]): inhibited |
| Cc1c(C(N)=O)sc2nc(C(F)(F)F)cc(N)c12 [DBA-5] | 21 | 1700 | potent |  |
| NC(=O)c1sc2nccc(N3CCCN(c4ccccc4)CC3)c2c1N [DBA-6] | 30 |  | partial dose-dependent rescue of proliferation; also recorded: potent | bone anabolic effect [2]: effect as bone anabolic agents |
| CN(C)C(=O)Cc1ccc(N2CCCN(c3ccnc4sc(C(N)=O)c(N)c34)CC2)cc1 [DBA-7] | 82 | 25 | potent; also recorded: partial dose-dependent rescue of proliferation | inhibition of CDK19 (CDK19 [4]): very selectively inhibited; inhibition of CDK8 (CDK8): very selectively inhibited; rescue from apoptosis (7-AAD) [5]: rescued; rescue of loss of kit+ progenitor cell maintenance in culture [6]: rescued; proliferation of DBA patient cells (cell counts) (DBA patient CD34+ cells [7]): rescue proliferation; erythroid maturation of DBA patient cells (CD71, CD235a) (DBA patient CD34+ cells [8]): increase erythroid maturation; bone anabolic effect [2]: effect as bone anabolic agents |
| N#Cc1ccc2ncnc(NCCc3ccccc3)c2c1 [DBA-8, reference compound] | 80 | 500 | partial dose-dependent rescue of proliferation | rescue from apoptosis (7-AAD) [5]: rescued; rescue of loss of kit+ progenitor cell maintenance in culture [6]: rescued |
| CN1CCN(C(=O)c2ccc3cc(CCNc4ncnc5ccc(C#N)cc45)ccc3c2)CC1 [DBA-9] | 60 |  |  | reticulocyte counts (RPS19-deficient mice): rescued; proliferation of DBA patient cells (cell counts) (DBA patient CD34+ cells [7]): rescue proliferation; erythroid maturation of DBA patient cells (CD71, CD235a) (DBA patient CD34+ cells [8]): increase erythroid maturation |
| Cc1c(Br)c(Br)c2c3c1nc(N1CCNCC1)n3CCC2 [DBA-10, 7,8-dibromo-9-methyl-2-(piperazin-1-yl)-5,6-dihydro-4H-imidazo[4,5,1-ij]quinoline hydrochloride, reference compound] | 60 | 20 |  | proliferation of DBA patient cells (cell counts) (DBA patient CD34+ cells [7]): rescue proliferation; erythroid maturation of DBA patient cells (CD71, CD235a) (DBA patient CD34+ cells [8]): increase erythroid maturation |
| Cn1cc(-c2ccc(-c3cncc(Cl)c3N3CCC4(CCNC4=O)CC3)cc2)cn1 [DBA-11, 8-[3-chloro-5-[4-(1-methyl-1H-pyrazol-4-yl)phenyl]-4-pyridinyl]-2,8-diazaspiro[4.5]decan-1-one, reference compound] | 50 | 20 |  |  |
